Measurements: PubChem BioAssay AID248 (DTP/NCI, 2004)
Values joined by “and” are separate entries in the source; they are usually repeats but may differ in a detail not shown here. Equal values may be shown once. Toxic doses and inconclusive results are not listed.

System: L1210 leukemia ip in BDF1 mice, survival T/C
Assay: NCI In Vivo Anticancer Drug Screen. Data for tumor model L1210 Leukemia (intraperitoneal) in B6D2F1 (BDF1) mice
Settings: endpoint: mean survival time, higher = longer survival
In short: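 Survival endpoint. Drug-treated group vs vehicle group, expressed as T divided by C. Tumor passaged by transplantation.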

[1] = dose: 100.0 mg/kg/injection, schedule: Q01DX001 (ip), vehicle: saline
[2] = dose: 100.0 mg/kg/injection, schedule: Q04DX003 (ip), vehicle: Klucel (hydroxypropylcellulose) (HPC)
[3] = dose: 200.0 mg/kg/injection, schedule: Q04DX003 (ip), vehicle: Klucel (hydroxypropylcellulose) (HPC)
[4] = dose: 100.0 mg/kg/injection, schedule: Q01DX009 (ip), vehicle: Klucel (hydroxypropylcellulose) (HPC)
[5] = dose: 200.0 mg/kg/injection, schedule: Q01DX009 (ip), vehicle: Klucel (hydroxypropylcellulose) (HPC)
[6] = dose: 400.0 mg/kg/injection, schedule: Q01DX009 (ip), vehicle: Klucel (hydroxypropylcellulose) (HPC)
[7] = dose: 100.0 mg/kg/injection, schedule: Q04DX002 (ip), vehicle: saline with Tween-80
[8] = dose: 200.0 mg/kg/injection, schedule: Q04DX002 (ip), vehicle: saline with Tween-80
[9] = dose: 400.0 mg/kg/injection, schedule: Q04DX002 (ip), vehicle: saline with Tween-80
[10] = dose: 100.0 mg/kg/injection, schedule: Q01DX009 (ip), vehicle: saline with Tween-80
[11] = dose: 200.0 mg/kg/injection, schedule: Q01DX009 (ip), vehicle: saline with Tween-80
[12] = dose: 12.5 mg/kg/injection, schedule: Q01DX009 (ip), vehicle: saline with Tween-80
[13] = dose: 25.0 mg/kg/injection, schedule: Q01DX009 (ip), vehicle: saline with Tween-80
[14] = dose: 100.0 mg/kg/injection, schedule: Q01DX001 (ip), vehicle: other
[15] = dose: 200.0 mg/kg/injection, schedule: Q01DX001 (ip), vehicle: other
[16] = dose: 50.0 mg/kg/injection, schedule: Q04DX002 (ip), vehicle: saline with Tween-80
[17] = dose: 25.0 mg/kg/injection, schedule: Q04DX002 (ip), vehicle: saline
[18] = dose: 50.0 mg/kg/injection, schedule: Q04DX002 (ip), vehicle: saline
[19] = dose: 100.0 mg/kg/injection, schedule: Q04DX003 (ip), vehicle: saline with Tween-80
[20] = dose: 200.0 mg/kg/injection, schedule: Q04DX003 (ip), vehicle: saline with Tween-80

## Nc1nc(N)c(N=Nc2ccc(S(=O)(=O)Nc3ccccn3)cc2)c(=O)[nH]1
[1]
  T/C: 94 % of control
dose: 200.0 mg/kg/injection, schedule: Q01DX001 (ip), vehicle: saline
  T/C: 94 % of control
dose: 400.0 mg/kg/injection, schedule: Q01DX001 (ip), vehicle: saline
  T/C: 94 % of control

## CC(=O)OC1OC(C[Se][As](C)C)C(OC(C)=O)C(OC(C)=O)C1OC(C)=O (stereo not given)
[2]
  T/C: 104 % of control
[3]
  T/C: 98 % of control
dose: 400.0 mg/kg/injection, schedule: Q04DX003 (ip), vehicle: Klucel (hydroxypropylcellulose) (HPC)
  T/C: 95 % of control

## COc1ccc(C)cc1NC(=O)C(Br)C(Br)C(=O)O (stereo not given)
[4]
  T/C: 100 % of control
[5]
  T/C: 97 % of control
[6]
  T/C: 96 % of control

## CCCS(=O)[O-].CCCS(=O)[O-].[Zn+2]
dose: 75.0 mg/kg/injection, schedule: Q01DX001 (ip), vehicle: saline
  T/C: 104 % of control

## CCOC(=O)c1cc2ccccc2[nH]1
dose: 50.0 mg/kg/injection, schedule: Q01DX001 (ip), vehicle: Klucel (hydroxypropylcellulose) (HPC)
  T/C: 93 % of control
dose: 100.0 mg/kg/injection, schedule: Q01DX001 (ip), vehicle: Klucel (hydroxypropylcellulose) (HPC)
  T/C: 98 % of control
[7]
  T/C: 97 % of control
dose: 200.0 mg/kg/injection, schedule: Q01DX001 (ip), vehicle: Klucel (hydroxypropylcellulose) (HPC)
  T/C: 93 % of control
[8]
  T/C: 87 % of control
[9]
  T/C: 97 % of control

## CC(=O)OC1OC(C2COC(C)(C)O2)C2OC(C)(C)OC12 (stereo not given)
dose: 100.0 mg/kg/injection, schedule: Q01DX001 (ip), vehicle: carboxymethylcellulose (CMC)
  T/C: 103 % of control
dose: 200.0 mg/kg/injection, schedule: Q01DX001 (ip), vehicle: carboxymethylcellulose (CMC)
  T/C: 103 % of control
dose: 400.0 mg/kg/injection, schedule: Q01DX001 (ip), vehicle: carboxymethylcellulose (CMC)
  T/C: 103 % of control

## COC(=O)c1ccc(OC(=O)Nc2cccc(Cl)c2C)cc1
[10]
  T/C: 98 % of control and 100 % of control
[7]
  T/C: 93 % of control and 91 % of control
[11]
  T/C: 95 % of control and 91 % of control
[8]
  T/C: 96 % of control and 87 % of control
[9]
  T/C: 96 % of control and 97 % of control

## C1COC(NC2CC3CCC2C3)=N1 (stereo not given)
dose: 6.25 mg/kg/injection, schedule: Q01DX009 (ip), vehicle: saline with Tween-80
  T/C: 94 % of control
dose: 6.25 mg/kg/injection, schedule: Q04DX003 (ip), vehicle: saline with Tween-80
  T/C: 94 % of control
[12]
  T/C: 104 % of control
dose: 12.5 mg/kg/injection, schedule: Q04DX003 (ip), vehicle: saline with Tween-80
  T/C: 91 % of control
[13]
  T/C: 100 % of control
dose: 25.0 mg/kg/injection, schedule: Q04DX003 (ip), vehicle: saline with Tween-80
  T/C: 97 % of control

## CCn1ccc2c(N)ncnc21
dose: 50.0 mg/kg/injection, schedule: Q01DX001 (ip), vehicle: saline
  T/C: 95 % of control

## CC(C)CCC1(c2ccccc2)C(=O)NC(=O)NC1=O
[1]
  T/C: 92 % of control

## CCCCn1c(=O)cc(C)c2ccccc21
[14]
  T/C: 95 % of control
[15]
  T/C: 92 % of control
dose: 400.0 mg/kg/injection, schedule: Q01DX001 (ip), vehicle: other
  T/C: 94 % of control

## O=C(O)CCC1CCC(=O)C1 (stereo not given)
[16]
  T/C: 102 % of control
[7]
  T/C: 106 % of control
[8]
  T/C: 98 % of control
[9]
  T/C: 95 % of control

## CCCCCCCOC(CN)C(Cl)(Cl)Cl (stereo not given)
dose: 12.5 mg/kg/injection, schedule: Q01DX001 (ip), vehicle: saline with Tween-80
  T/C: 104 % of control
[12]
  T/C: 100 % of control and 104 % of control
dose: 25.0 mg/kg/injection, schedule: Q01DX001 (ip), vehicle: saline with Tween-80
  T/C: 100 % of control
[13]
  T/C: 97 % of control and 91 % of control
dose: 25.0 mg/kg/injection, schedule: Q04DX002 (ip), vehicle: saline with Tween-80
  T/C: 103 % of control and 108 % of control
dose: 50.0 mg/kg/injection, schedule: Q01DX001 (ip), vehicle: saline with Tween-80
  T/C: 94 % of control
[16]
  T/C: 103 % of control and 105 % of control

## Cc1cc[n+](Cc2ccccc2)cc1
dose: 12.5 mg/kg/injection, schedule: Q04DX003 (ip), vehicle: saline
  T/C: 96 % of control
dose: 25.0 mg/kg/injection, schedule: Q04DX003 (ip), vehicle: saline
  T/C: 90 % of control

## NC(Cc1ccc(O)cc1)C(=O)CCl (stereo not given)
[17]
  T/C: 110 % of control
[18]
  T/C: 105 % of control

## COc1ccc(OC)c(NC(=O)SCCSC(=O)Nc2cc(OC)ccc2OC)c1
[4]
  T/C: 92 % of control
[5]
  T/C: 91 % of control
[6]
  T/C: 92 % of control

## O=C(O)CC[S-].[Ag+]
dose: 50.0 mg/kg/injection, schedule: Q04DX003 (ip), vehicle: other
  T/C: 94 % of control
dose: 75.0 mg/kg/injection, schedule: Q01DX009 (ip), vehicle: other
  T/C: 98 % of control
[14]
  T/C: 91 % of control
dose: 100.0 mg/kg/injection, schedule: Q04DX003 (ip), vehicle: other
  T/C: 89 % of control
dose: 150.0 mg/kg/injection, schedule: Q01DX009 (ip), vehicle: other
  T/C: 98 % of control
[15]
  T/C: 91 % of control
dose: 200.0 mg/kg/injection, schedule: Q04DX003 (ip), vehicle: other
  T/C: 91 % of control
dose: 300.0 mg/kg/injection, schedule: Q01DX009 (ip), vehicle: other
  T/C: 109 % of control

## O=C(Cc1ccccc1)Nc1ccc[n+](Cc2ccc(S(=O)(=O)F)cc2)c1
dose: 100.0 mg/kg/injection, schedule: Q04DX003 (ip), vehicle: saline
  T/C: 108 % of control and 122 % of control
dose: 200.0 mg/kg/injection, schedule: Q04DX003 (ip), vehicle: saline
  T/C: 113 % of control and 114 % of control

## SCCS
[16]
  T/C: 101 % of control
[7]
  T/C: 101 % of control
[8]
  T/C: 86 % of control

## CCCN(CCC)CCC#N
dose: 59.0 mg/kg/injection, schedule: Q01DX009 (ip), vehicle: saline with Tween-80
  T/C: 100 % of control
[19]
  T/C: 93 % of control
dose: 118.0 mg/kg/injection, schedule: Q01DX009 (ip), vehicle: saline with Tween-80
  T/C: 105 % of control
[20]
  T/C: 93 % of control

## Cc1cc(-c2ccc(N3C(=O)C=CC3=O)c(C)c2)ccc1N1C(=O)C=CC1=O
[2]
  T/C: 105 % of control
[3]
  T/C: 100 % of control

## O=C(O)c1c[nH]n2c(=S)ncnc12
dose: 50.0 mg/kg/injection, schedule: Q01DX009 (ip), vehicle: saline with Tween-80
  T/C: 97 % of control
[10]
  T/C: 96 % of control and 103 % of control
[19]
  T/C: 96 % of control
[11]
  T/C: 102 % of control and 103 % of control
[20]
  T/C: 94 % of control
dose: 400.0 mg/kg/injection, schedule: Q01DX009 (ip), vehicle: saline with Tween-80
  T/C: 101 % of control

## CCCCCCCCC1SC1CCCCCCCC(=O)N1CCCN(C(=O)CCCCCCCC2SC2CCCCCCCC)C1 (stereo not given)
[19]
  T/C: 92 % of control
[20]
  T/C: 95 % of control
dose: 400.0 mg/kg/injection, schedule: Q04DX003 (ip), vehicle: saline with Tween-80
  T/C: 97 % of control

## OCC1OC(n2cnc3c2ncn2ccnc32)C(O)C1O (stereo not given)
dose: 6.25 mg/kg/injection, schedule: Q03HX024 (ip), vehicle: saline
  T/C: 98 % of control
dose: 12.5 mg/kg/injection, schedule: Q03HX024 (ip), vehicle: saline
  T/C: 93 % of control
dose: 12.5 mg/kg/injection, schedule: Q04DX002 (ip), vehicle: saline
  T/C: 93 % of control
dose: 25.0 mg/kg/injection, schedule: Q03HX024 (ip), vehicle: saline
  T/C: 95 % of control
[17]
  T/C: 97 % of control
dose: 50.0 mg/kg/injection, schedule: Q03HX024 (ip), vehicle: saline
  T/C: 92 % of control
[18]
  T/C: 179 % of control
dose: 100.0 mg/kg/injection, schedule: Q01DX005 (ip), vehicle: saline
  T/C: 101 % of control
dose: 100.0 mg/kg/injection, schedule: Q01DX009 (ip), vehicle: saline
  T/C: 107 % of control
dose: 100.0 mg/kg/injection, schedule: Q03HX024 (ip), vehicle: saline
  T/C: 87 % of control
dose: 200.0 mg/kg/injection, schedule: Q01DX005 (ip), vehicle: saline
  T/C: 107 % of control
dose: 200.0 mg/kg/injection, schedule: Q01DX009 (ip), vehicle: saline
  T/C: 89 % of control
dose: 200.0 mg/kg/injection, schedule: Q03HX024 (ip), vehicle: saline
  T/C: 88 % of control
dose: 400.0 mg/kg/injection, schedule: Q01DX009 (ip), vehicle: saline
  T/C: 104 % of control
